For one assay, the target named is Focal adhesion kinase 1 (Homo sapiens, UniProt Q05397). Description: (§1) Biochemical Assay: To measure inhibitory activity of FAK/PYK2 inhibitors, compounds were first prepare as a 1 mM stock in 100% DMSO and 3-fold serial dilution was performed in a 96-well plate (Corning, 3897) to generate 12 different concentration of 100× stock. A 5 μl of 100× stock of each concentration was added to wells containing 95 μl of 1× reaction buffer (40 mM Tris, pH7.5, […], 1 mM DTT and 1 mM CHAPS) to generate 5× stock. Then 2 μl of 5× stock of each concentration was added to a 384 wells-OptiPlate (PerkinElmer, 6007299). For FAK, 4 μl of 2.5 nM FAK, 1 μl of 8 μg/μl BSA and 1.5 μl of 666 nM ULight-poly Glu, Ala, Tyr (1:1:1) peptide substrate, prepared in above reaction buffer, were added to each well. The reaction was initiated by adding 1.5 μl of 33.3 μM ATP. The reaction was allowed to proceed for 120 min before being quenched with 5 μl of 40 mM EDTA stop buffer prepared in 1×LANCE detection buffer (PerkinElmer, CR97-100). For PYK2, 5 μl of 2 nM PYK2 and 1.5 μl of 666 nM ULight-poly Glu, Ala, Tyr (1:1:1) peptide substrate, prepared in above reaction buffer, were added to each well. The reaction was initiated by adding 1.5 μl of 46.6 μM ATP. The reaction was allowed to proceed for 40 min before being quenched with 5 μl of 40 mM EDTA stop buffer prepared in 1×LANCE detection buffer (PerkinElmer, CR97-100). Upon quenching of the reaction, 5 μl of 8 nM anti-phosphotyrosine antibody was added to each well and incubated for 60 minutes. On the technique in general: TR-FRET usually uses a lanthanide donor and a delayed reading to cut background.

The target in assay [1] is Protein-tyrosine kinase 2-beta (Homo sapiens, UniProt Q14289). Described as §1.

Where only a bound is given, the exact number is not on record here.

A word on the IC50: it is the concentration needed to halve the response being measured.

Chain of Focal adhesion kinase 1 (Q05397 whole entry): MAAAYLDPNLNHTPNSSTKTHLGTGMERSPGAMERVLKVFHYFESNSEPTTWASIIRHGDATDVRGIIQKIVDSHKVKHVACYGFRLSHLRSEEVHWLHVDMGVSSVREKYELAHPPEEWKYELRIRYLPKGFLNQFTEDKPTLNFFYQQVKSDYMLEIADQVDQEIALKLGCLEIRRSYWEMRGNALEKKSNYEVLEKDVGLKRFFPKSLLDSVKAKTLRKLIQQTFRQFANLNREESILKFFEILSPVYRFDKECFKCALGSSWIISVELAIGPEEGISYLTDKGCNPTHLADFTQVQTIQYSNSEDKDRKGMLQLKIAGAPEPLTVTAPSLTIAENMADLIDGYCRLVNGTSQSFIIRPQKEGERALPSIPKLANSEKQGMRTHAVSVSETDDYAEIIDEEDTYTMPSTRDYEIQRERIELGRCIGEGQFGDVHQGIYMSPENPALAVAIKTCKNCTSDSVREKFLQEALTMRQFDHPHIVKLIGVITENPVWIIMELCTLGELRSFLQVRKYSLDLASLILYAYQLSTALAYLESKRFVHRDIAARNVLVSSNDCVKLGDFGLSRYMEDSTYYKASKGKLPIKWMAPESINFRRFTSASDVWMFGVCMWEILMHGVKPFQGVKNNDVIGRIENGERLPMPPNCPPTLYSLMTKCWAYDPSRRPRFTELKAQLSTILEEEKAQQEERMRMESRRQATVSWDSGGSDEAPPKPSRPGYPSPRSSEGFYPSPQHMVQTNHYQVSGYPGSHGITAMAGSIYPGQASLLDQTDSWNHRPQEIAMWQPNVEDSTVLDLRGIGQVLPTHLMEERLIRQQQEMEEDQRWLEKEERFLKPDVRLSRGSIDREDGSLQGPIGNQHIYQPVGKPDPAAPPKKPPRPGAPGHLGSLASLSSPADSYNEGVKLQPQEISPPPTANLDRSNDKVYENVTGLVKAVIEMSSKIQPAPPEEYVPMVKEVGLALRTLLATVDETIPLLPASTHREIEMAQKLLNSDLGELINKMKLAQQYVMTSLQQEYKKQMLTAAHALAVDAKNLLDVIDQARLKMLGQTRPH
Chain of Protein-tyrosine kinase 2-beta (Q14289 whole entry): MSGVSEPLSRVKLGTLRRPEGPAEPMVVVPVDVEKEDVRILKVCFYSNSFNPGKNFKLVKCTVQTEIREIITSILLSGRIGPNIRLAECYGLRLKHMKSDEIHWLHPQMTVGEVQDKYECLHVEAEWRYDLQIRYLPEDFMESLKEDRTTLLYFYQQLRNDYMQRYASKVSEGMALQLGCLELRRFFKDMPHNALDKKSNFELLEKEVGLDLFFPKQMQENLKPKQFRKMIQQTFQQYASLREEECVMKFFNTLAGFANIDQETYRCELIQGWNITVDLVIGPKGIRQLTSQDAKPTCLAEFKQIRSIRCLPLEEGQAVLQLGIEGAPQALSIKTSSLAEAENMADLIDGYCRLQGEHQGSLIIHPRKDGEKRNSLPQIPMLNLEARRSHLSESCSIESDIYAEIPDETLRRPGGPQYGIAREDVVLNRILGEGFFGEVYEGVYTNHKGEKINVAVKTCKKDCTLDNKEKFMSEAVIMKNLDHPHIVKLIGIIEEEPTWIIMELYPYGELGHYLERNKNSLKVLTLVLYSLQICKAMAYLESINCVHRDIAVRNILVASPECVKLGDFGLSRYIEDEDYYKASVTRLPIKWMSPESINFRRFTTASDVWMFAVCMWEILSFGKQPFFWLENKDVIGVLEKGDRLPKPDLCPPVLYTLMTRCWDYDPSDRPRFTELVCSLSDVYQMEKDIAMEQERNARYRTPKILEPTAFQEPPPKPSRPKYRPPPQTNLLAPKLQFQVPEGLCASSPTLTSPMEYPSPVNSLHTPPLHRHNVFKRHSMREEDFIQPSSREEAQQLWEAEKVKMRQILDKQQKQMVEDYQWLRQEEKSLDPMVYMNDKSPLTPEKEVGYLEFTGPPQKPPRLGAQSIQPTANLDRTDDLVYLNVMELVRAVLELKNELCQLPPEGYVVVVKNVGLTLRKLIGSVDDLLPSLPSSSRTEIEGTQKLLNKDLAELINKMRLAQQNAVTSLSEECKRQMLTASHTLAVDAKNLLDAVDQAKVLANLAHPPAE

Consider `CCOc1cc(N2CCOCC2)ccc1Nc1nc2c(c(Nc3ccccc3S(=O)(=O)NC(C)C)n1)CCN2`, for which the 50% inhibitory concentration (IC50) on Focal adhesion kinase 1 was under 50 nM; in assay [1], under 100 nM.

For the compound `COc1cc(N2CCOCC2)ccc1Nc1nc2c(c(Nc3ccc(F)c(F)c3)n1)CCN2`, the values for the IC50 (on Focal adhesion kinase 1; in assay [1]) were over 1000 nM and under 1000 nM, respectively.

`COc1cc(N2CCCCC2=O)ccc1Nc1nc2c(c(Nc3ccccc3S(=O)(=O)NC(C)C)n1)CCN2`: the concentration for half-maximal inhibition (IC50) (against Focal adhesion kinase 1; in assay [1]) was under 20 nM each time.

Regarding `CCC(C)NS(=O)(=O)c1ccccc1Nc1nc(Nc2ccc(N3CCOCC3)cc2OC)nc2c1C1(CC1)CN2` (stereo unspecified), the IC50 (against Focal adhesion kinase 1; in assay [1]) was under 20 nM in each case.

As for `CC(C)NS(=O)(=O)c1ccccc1Nc1nc(Nc2ccc(C(C)N3CCCCC3)cc2)nc2c1CCN2` (stereo unspecified), the IC50 (at Focal adhesion kinase 1; in assay [1]) was under 20 nM throughout.

With `COc1cc(N2CCOCC2)ccc1Nc1nc2c(c(Nc3ccccc3CCO)n1)CCN2`, the IC50 (on Focal adhesion kinase 1; in assay [1]) was under 1000 nM throughout.

As to `COc1cc(N2C(=O)CCc3ccccc32)ccc1Nc1nc2c(c(Nc3ccccc3S(=O)(=O)NC(C)C)n1)CCN2`, the IC50 (on Focal adhesion kinase 1; in assay [1]) was under 500 nM each time.

Turning to `COc1cc(N2CCC(N3CCOCC3)CC2)ccc1Nc1nc2c(c(Nc3ccccc3S(=O)(=O)NC(C)C)n1)CCN2`, the concentration for half-maximal inhibition (IC50) (against Focal adhesion kinase 1; in assay [1]) was under 20 nM in each case.
